Laboratory results taken from PMC7316778 (Nature Communications, 2020).
Where “and” joins values, the source holds several entries; their conditions need not be identical. Equal entries are not always repeated. Where two headings read alike, the source gives them in different places.

How the values were obtained:
CDK5/p25 = CDK5/p25 (Homo sapiens, UniProt Q00535); experiment: SelectScreen kinase assay; details: 1 h, 1 μM WEL028, 1 h preincubation
Protocol: (§1) Selectivity profiling assays were performed by the Invitrogen SelectScreen™ Services. […] The concentration of ATP was selected to be equal to the KM, unless indicated otherwise.

JAK2 = JAK2 (Homo sapiens, UniProt O60674); experiment: SelectScreen kinase assay; details: 1 μM WEL028, 1 h preincubation
Protocol: as §1

CAMKK1 (CAMKKA) = CAMKK1 (CAMKKA) (Homo sapiens, UniProt Q8N5S9); experiment: SelectScreen kinase assay
Chain of CAMKK1 (CAMKKA) (Q8N5S9 whole entry): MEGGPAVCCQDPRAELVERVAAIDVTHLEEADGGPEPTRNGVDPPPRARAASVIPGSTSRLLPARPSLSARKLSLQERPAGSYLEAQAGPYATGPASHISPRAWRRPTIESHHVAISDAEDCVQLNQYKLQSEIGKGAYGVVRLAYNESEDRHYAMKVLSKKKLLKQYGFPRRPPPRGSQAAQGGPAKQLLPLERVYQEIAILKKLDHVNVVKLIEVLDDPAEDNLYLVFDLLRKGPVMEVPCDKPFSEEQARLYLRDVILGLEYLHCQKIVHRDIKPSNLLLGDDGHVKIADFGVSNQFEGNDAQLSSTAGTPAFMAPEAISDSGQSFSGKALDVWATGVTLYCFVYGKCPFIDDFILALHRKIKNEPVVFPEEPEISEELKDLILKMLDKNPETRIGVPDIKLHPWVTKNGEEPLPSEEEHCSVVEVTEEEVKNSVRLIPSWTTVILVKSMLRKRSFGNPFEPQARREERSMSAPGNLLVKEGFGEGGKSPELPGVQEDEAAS
Protocol: as §1

MAPK7 (ERK5) = MAPK7 (ERK5) (Homo sapiens, UniProt Q13164); experiment: SelectScreen kinase assay
Chain of MAPK7 (ERK5) (Q13164 whole entry): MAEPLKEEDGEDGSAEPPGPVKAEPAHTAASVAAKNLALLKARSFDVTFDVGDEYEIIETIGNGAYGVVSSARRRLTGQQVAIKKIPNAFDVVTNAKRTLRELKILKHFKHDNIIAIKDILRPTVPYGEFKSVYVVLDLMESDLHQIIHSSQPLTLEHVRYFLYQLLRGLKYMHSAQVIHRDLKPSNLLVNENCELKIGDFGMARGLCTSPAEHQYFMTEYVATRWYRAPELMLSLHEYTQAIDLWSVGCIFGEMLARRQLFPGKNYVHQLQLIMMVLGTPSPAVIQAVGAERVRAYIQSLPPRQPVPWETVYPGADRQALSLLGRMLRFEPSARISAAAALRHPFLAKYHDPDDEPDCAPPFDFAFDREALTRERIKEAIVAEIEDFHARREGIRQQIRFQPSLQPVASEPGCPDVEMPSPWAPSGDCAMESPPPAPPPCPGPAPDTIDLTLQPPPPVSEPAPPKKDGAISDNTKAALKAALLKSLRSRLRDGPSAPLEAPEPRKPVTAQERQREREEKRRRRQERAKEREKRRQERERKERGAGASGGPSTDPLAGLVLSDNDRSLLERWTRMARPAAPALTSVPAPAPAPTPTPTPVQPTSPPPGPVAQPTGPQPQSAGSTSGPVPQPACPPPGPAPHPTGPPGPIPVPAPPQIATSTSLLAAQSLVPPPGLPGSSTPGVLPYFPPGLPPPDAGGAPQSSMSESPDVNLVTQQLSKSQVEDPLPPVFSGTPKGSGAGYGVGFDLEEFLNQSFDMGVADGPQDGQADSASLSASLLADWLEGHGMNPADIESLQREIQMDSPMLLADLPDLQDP
Protocol: as §1

FES^S700C HL-60 cells = experiment: Proliferation ratio during neutrophil differentiation; format: cell-based, human; details: 100 nM; Supplementary Figure 12d; individual replicates; listed as WEL028
CDC7/DBF4 = CDC7/DBF4 (Homo sapiens, UniProt O00311); experiment: SelectScreen kinase assay
Chain of CDC7/DBF4 (O00311 whole entry): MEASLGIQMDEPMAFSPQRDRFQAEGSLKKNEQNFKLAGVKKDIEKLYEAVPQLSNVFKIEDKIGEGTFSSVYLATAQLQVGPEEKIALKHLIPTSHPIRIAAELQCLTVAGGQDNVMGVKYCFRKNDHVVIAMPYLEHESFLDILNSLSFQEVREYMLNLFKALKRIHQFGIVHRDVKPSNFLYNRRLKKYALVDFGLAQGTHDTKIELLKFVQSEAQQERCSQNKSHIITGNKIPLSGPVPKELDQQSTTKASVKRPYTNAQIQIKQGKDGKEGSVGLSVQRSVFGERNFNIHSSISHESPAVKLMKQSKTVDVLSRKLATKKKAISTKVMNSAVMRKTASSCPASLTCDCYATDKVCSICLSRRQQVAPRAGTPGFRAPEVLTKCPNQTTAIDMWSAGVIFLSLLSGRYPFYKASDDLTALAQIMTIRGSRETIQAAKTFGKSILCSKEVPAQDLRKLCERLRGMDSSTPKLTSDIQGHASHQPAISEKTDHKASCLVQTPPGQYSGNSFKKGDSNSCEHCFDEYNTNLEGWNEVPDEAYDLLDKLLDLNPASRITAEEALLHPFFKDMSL
Chain of CDC7/DBF4 (Q9UBU7 whole entry partner): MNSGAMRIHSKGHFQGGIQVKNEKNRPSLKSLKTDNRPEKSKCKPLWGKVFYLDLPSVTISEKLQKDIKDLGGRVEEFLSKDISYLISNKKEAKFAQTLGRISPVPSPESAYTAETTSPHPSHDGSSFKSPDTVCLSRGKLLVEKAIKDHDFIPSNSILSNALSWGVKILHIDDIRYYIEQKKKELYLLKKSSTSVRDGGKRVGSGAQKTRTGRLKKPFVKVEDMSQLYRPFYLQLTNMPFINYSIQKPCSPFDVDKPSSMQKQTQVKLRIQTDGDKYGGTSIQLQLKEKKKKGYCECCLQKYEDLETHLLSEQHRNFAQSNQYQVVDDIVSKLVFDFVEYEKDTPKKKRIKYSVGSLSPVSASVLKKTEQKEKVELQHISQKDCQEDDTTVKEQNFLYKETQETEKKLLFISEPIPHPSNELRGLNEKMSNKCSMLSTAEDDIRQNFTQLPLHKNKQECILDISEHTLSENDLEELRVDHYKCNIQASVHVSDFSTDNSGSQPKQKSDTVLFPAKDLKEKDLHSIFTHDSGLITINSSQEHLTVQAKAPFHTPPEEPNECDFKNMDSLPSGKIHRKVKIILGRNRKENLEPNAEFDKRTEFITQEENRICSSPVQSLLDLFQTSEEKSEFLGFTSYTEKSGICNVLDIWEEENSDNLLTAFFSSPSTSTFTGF
Protocol: as §1

ROCK2 = ROCK2 (Homo sapiens, UniProt O75116); experiment: SelectScreen kinase assay; details: 1 h, 1 μM WEL028, 1 h preincubation
Protocol: as §1

MAP2K1 (MEK1) = MAP2K1 (MEK1) (Homo sapiens, UniProt Q02750); experiment: SelectScreen kinase assay
Chain of MAP2K1 (MEK1) (Q02750 whole entry, species assumed): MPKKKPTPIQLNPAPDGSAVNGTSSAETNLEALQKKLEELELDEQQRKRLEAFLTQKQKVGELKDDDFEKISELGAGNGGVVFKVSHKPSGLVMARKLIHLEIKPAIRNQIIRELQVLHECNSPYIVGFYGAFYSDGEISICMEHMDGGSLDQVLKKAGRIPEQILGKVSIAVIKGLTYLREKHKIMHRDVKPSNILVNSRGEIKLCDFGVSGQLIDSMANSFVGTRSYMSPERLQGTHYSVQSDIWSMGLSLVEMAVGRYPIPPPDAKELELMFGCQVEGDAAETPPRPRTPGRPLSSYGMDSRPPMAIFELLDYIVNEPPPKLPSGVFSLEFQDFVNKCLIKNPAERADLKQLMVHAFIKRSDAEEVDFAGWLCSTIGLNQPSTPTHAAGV
Protocol: as §1

CHEK1 (CHK1) = CHEK1 (CHK1) (Homo sapiens, UniProt O14757); experiment: SelectScreen kinase assay; details: 1 μM WEL028, 1 h preincubation
Chain of CHEK1 (CHK1) (O14757 whole entry): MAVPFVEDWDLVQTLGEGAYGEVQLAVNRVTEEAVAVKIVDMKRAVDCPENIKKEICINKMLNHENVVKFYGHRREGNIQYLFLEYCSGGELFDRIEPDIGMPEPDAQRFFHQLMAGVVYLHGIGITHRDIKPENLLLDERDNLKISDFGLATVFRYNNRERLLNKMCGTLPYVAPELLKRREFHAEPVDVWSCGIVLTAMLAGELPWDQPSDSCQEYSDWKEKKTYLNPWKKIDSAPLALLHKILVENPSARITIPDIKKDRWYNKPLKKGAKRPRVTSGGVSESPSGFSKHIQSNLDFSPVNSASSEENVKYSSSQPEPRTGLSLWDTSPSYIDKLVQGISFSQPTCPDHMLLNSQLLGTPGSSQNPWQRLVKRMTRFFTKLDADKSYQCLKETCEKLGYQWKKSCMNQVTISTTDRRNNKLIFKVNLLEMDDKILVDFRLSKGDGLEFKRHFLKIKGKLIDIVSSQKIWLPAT
Protocol: as §1

PKN1 (PRK1) = PKN1 (PRK1) (Homo sapiens, UniProt Q16512); experiment: SelectScreen kinase assay
Chain of PKN1 (PRK1) (Q16512 whole entry): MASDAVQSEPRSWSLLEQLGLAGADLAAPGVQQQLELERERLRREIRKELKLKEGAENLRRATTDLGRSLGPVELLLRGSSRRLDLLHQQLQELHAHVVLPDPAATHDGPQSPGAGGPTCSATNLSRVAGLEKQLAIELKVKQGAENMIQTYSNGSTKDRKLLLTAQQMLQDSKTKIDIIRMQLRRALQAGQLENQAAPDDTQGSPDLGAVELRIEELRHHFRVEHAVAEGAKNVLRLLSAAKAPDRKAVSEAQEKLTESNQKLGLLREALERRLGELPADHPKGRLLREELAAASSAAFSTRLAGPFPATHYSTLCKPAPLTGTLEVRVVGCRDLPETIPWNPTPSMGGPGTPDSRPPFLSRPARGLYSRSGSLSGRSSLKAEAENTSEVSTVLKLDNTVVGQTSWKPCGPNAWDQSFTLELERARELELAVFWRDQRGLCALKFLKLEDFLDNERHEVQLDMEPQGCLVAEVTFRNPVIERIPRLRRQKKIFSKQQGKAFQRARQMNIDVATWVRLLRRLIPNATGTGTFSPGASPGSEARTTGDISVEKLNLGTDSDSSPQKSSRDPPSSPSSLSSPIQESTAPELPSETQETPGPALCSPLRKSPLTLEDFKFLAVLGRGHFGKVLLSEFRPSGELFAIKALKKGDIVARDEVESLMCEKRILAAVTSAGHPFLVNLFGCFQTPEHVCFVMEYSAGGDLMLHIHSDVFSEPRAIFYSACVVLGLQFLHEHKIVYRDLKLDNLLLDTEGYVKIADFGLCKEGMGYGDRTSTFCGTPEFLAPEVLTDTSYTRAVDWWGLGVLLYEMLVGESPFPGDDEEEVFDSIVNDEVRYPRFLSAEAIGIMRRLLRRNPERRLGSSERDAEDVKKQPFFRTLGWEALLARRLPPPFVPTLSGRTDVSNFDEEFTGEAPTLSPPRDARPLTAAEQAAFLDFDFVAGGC
Protocol: as §1

[1] = 1 h, 1 μM WEL028, 1 h preincubation

Chain of CDK5/p25 (Q00535 whole entry): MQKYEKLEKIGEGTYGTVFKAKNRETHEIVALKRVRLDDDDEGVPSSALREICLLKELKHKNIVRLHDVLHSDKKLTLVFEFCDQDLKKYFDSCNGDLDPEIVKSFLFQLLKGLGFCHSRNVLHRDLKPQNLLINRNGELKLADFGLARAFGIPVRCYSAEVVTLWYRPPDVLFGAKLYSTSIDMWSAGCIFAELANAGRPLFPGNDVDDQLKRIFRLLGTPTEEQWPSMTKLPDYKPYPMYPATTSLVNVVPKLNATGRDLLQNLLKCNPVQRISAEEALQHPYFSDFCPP
Chain of CDK5/p25 (Q15078 99-307 partner limits assumed): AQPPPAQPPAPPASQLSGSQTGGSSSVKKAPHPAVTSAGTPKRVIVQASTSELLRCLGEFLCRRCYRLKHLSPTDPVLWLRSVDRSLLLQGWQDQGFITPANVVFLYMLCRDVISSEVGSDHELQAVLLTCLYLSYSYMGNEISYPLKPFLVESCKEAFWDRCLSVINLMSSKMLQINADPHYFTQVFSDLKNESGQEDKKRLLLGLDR

Compound: C#CCOc1ccc(Nc2ncc(Cl)c(Nc3ccccc3NC(=O)C=C)n2)c(OC)c1 [Compound 6]
- inhibition at 1 µM (CDK5/p25): 2%
- Inhibition (%) (JAK2): 0%
- inhibition at 1 µM (CAMKK1 (CAMKKA); [1]): 22%
- Inhibition at 1 µM (%) (CAMKK1 (CAMKKA); CAMKK1 (CAMKKA), 1 µM, LanthaScreen Binding, listed as WEL028, 1 µM): 24%
- inhibition at 1 µM (CAMKK1 (CAMKKA); read-out: Inhibition at 1 µM (%), CAMKK1 (CAMKKA), 1 µM, LanthaScreen Binding): 20%
- inhibition at 1 µM (MAPK7 (ERK5); [1]): 4%
- Inhibition at 1 µM (%) (MAPK7 (ERK5); MAPK7 (ERK5), 1 µM, ZLYTE, ATP Km app, listed as WEL028, 1 µM): 3%
- inhibition at 1 µM (MAPK7 (ERK5); read-out: Inhibition at 1 µM (%), MAPK7 (ERK5), 1 µM, ZLYTE, ATP Km app): 4%
- Proliferation ratio (FES^S700C HL-60 cells): 1.625 and 1.925 and 1.9
- inhibition at 1 µM (CDC7/DBF4; [1]): 3%
- Inhibition at 1 µM (%) (CDC7/DBF4; CDC7/DBF4, 1 µM, LanthaScreen Binding, listed as WEL028, 1 µM): 6% and 1%
- inhibition at 1 µM (ROCK2): 0%
- IC50 (MAP2K1 (MEK1)): 0.251 µM
- inhibition at 10 µM (MAP2K1 (MEK1); 1 h, log[inhibitor] (M) -5.00, ZLYTE, ATP 100): 110%
- inhibition at 3.311 µM (MAP2K1 (MEK1); 1 h, log[inhibitor] (M) -5.48, ZLYTE, ATP 100): 106%
- inhibition at 1.122 µM (MAP2K1 (MEK1); 1 h, log[inhibitor] (M) -5.95, ZLYTE, ATP 100): 106%
- inhibition at 0.3715 µM (MAP2K1 (MEK1); 1 h, log[inhibitor] (M) -6.43, ZLYTE, ATP 100): 78%
- inhibition at 0.123 µM (MAP2K1 (MEK1); 1 h, log[inhibitor] (M) -6.91, ZLYTE, ATP 100): 44%
- inhibition at 0.04074 µM (MAP2K1 (MEK1); 1 h, log[inhibitor] (M) -7.39, ZLYTE, ATP 100): 29%
- inhibition at 0.0138 µM (MAP2K1 (MEK1); 1 h, log[inhibitor] (M) -7.86, ZLYTE, ATP 100): 40%
- inhibition at 0.001514 µM (MAP2K1 (MEK1); 1 h, log[inhibitor] (M) -8.82, ZLYTE, ATP 100): 19%
- inhibition at 0.0004898 µM (MAP2K1 (MEK1); 1 h, log[inhibitor] (M) -9.31, ZLYTE, ATP 100): 18%
- inhibition at 0.004571 µM (MAP2K1 (MEK1); 1 h, log[inhibitor] (M) -[…], ZLYTE, ATP 100): 27%
- Apparent fold selectivity (MAP2K1 (MEK1); IC50 on that kinase divided by IC50 on FES^S700C): 60 fold
- Inhibition at 1 µM (%) (MAP2K1 (MEK1); MAP2K1 (MEK1), 1 µM, ZLYTE, ATP 100, listed as WEL028, 1 µM): 108%
- inhibition at 1 µM (MAP2K1 (MEK1); read-out: Inhibition at 1 µM (%), MAP2K1 (MEK1), 1 µM, ZLYTE, ATP 100): 113%
- Inhibition (%) (CHEK1 (CHK1)): 0%
- inhibition at 1 µM (PKN1 (PRK1); [1]): 7%
- Inhibition at 1 µM (%) (PKN1 (PRK1); PKN1 (PRK1), 1 µM, ZLYTE, ATP Km app, listed as WEL028, 1 µM): 5%
- inhibition at 1 µM (PKN1 (PRK1); read-out: Inhibition at 1 µM (%), PKN1 (PRK1), 1 µM, ZLYTE, ATP Km app): 8%
